Patent US20040102454A1, “Phenylahistin and the phenylahistin analogs, a new class of anti-tumor compounds” (priority 1998, published 2004)
pIC50: −log10 of the molar value. Values joined by “and” are separate entries in the source; they are usually repeats but may differ in a detail not shown here. Identical values can stand only once.

Experiments:
[1] = tested on: B16-F10 Melanoma (murine melanoma); assay: Tumor Panel Screen, Resazurin cytotoxicity assay; assay type: cell-based
Source text: (§1) The following cell lines (source in parentheses) were used: HT29 (human colon tumor; ATCC; HTB-38), PC3 (human prostate tumor; ATCC; CRL-1435), MDA-MB-231 (human breast tumor; ATCC; HTB-26), NCI-H292 (human non-small cell lung tumor; ATCC; CRL-1848), OVCAR-3 (human ovarian tumor; ATCC; HTB-161), B16-F10 (murine melanoma; ATCC; CRL-6475) and CCD-27 sk (normal human fibroblast; ATCC; CRL-1475). Cells were maintained at subconfluent densities in their respective culture media.
(§2) Cytotoxicity assays were performed as described above in Example 4, using Resazurin fluorescence as an indicator of cell viability.

[2] = tested on: CCD-27sk Fibroblast (normal human fibroblast); assay: Tumor Panel Screen, Resazurin cytotoxicity assay; assay type: cell-based
Source text: as §1, §2

[3] = tested on: HT-29 Colon (human colon tumor); assay: Tumor Panel Screen, Resazurin cytotoxicity assay; assay type: cell-based
Source text: as §1, §2

[4] = tested on: MDA-MB-231 Breast (human breast tumor); assay: Tumor Panel Screen, Resazurin cytotoxicity assay; assay type: cell-based
Source text: as §1, §2

[5] = tested on: NCI-H292 Lung (human non-small cell lung tumor); assay: Tumor Panel Screen, Resazurin cytotoxicity assay; assay type: cell-based
Source text: as §1, §2

[6] = tested on: OVCAR-3 Ovary (human ovarian tumor); assay: Tumor Panel Screen, Resazurin cytotoxicity assay; assay type: cell-based
Source text: as §1, §2

[7] = tested on: PC-3 Prostate (human prostate tumor); assay: Tumor Panel Screen, Resazurin cytotoxicity assay; assay type: cell-based
Source text: as §1, §2

[8] = tested on: MES-SA (Taxol Sensitive) human uterine sarcoma tumor cell line; assay: Drug resistant cell line pair, cytotoxicity; assay type: cell-based
Source text: (§3) MES-SA (Taxol Sensitive) and MES-SA DX (Taxol Resistant). This cell line expresses elevated mdr-1 mRNA and P-glycoprotein (an extrusion pump mechanism). Pretreatment with cyclosporin-A (CsA) blocks P-glycoprotein and reinstates activity in the resistant cell line for those compounds for which the resistance is due to elevated P-glycoprotein.

[9] = tested on: MES-SA DX (Taxol Resistant) human uterine sarcoma tumor cell line; assay: Drug resistant cell line pair, cytotoxicity; assay type: cell-based; details: MES-SA DX Resistant
Source text: as §3

[10] = tested on: HL-60 (Mitoxantrone-Sensitive) human acute promyelocytic leukemia cell line; assay: Drug resistant cell line pair, cytotoxicity; assay type: cell-based; details: HL-60 Sensitive
Source text: 2) Human Acute Promyelocytic Leukemia Cell Line Pair: HL-60 (Mitoxantrone-Sensitive) and HL-60/MX-2 (Mitoxantrone-Resistant)
This cell line is considered to have atypical drug resistance properties with altered topoisomerase II catalytic activity without overexpression of P-glycoprotein.

[11] = tested on: HL-60/MX-2 (Mitoxantrone-Resistant) human acute promyelocytic leukemia cell line; assay: Drug resistant cell line pair, cytotoxicity; assay type: cell-based; details: HL-60 Resistant
Source text: HL-60 (Mitoxantrone-Sensitive) and HL-60/MX-2 (Mitoxantrone-Resistant) This cell line is considered to have atypical drug resistance properties with altered topoisomerase II catalytic activity without overexpression of P-glycoprotein.

[12] = tested on: tubulin in Human umbilical vein endothelial cells (HuVEC); assay: Action on microtubule function, staining for α-tubulin; assay type: cell-based; details: 2 μM, thirty minutes exposure
[13] = tested on: Caspase-3 in Jurkat cells; assay: Activation of the caspase cascade; assay type: cell-based
Source text: Several enzymes in the caspase cascade are activated during apoptosis, including Caspase-3, -8 and-9. The activity of Caspase-3 was monitored in Jurkat cells following treatment with t-butyl-phenylahistin.

HuVEC monolayer = HuVEC monolayer permeability to FITC-Dextran; assay type: cell-based, human
Source text: This vascular collapse is preceded by a rapid induction of vascular cell permeability initially to electrolytes and soon after to large molecules. The enhanced permeability of HuVEC cells to a fluorescent-labeled dextran is used as a proxy assay for vascular collapse.

HT-29 human colon tumor = assay: HT-29 Human Colon Tumor Xenograft Model; assay type: in vivo, nude mice
Experimental: Animals used were (exceptions are indicated for individual studies): female nude mice (nu/nu) between 5 and 6 weeks of age (˜20 g, Harlan); group size was 9-10 mice per group unless otherwise indicated. The selected novel compound was administered as monotherapy via the intraperitoneal (i.p.) route at the doses indicated for the individual study; for the combination studies the selected reference chemotherapy agents were injected 15-30 min prior to the compound. Vehicles used in these studies were: 12.5% DMSO, 5% Cremaphor and 82.5% peanut oil for the selected novel compounds; (1:3) Polysorbate 80:13% ethanol for taxotere; […] Saline dilutions are used to achieve the injection concentrations used for the reference compounds. Animals were implanted subcutaneously (s.c.) by trocar with fragments of HT-29 tumors harvested from s.c. growing tumors in nude mice hosts. […] CPT-11 was administered intraperitoneally on days 1, 8 and 15 (qw×3).

[14] = tested on: DU-145 human prostate tumor; assay: DU-145 Human Prostate Tumor Xenograft Model; assay type: in vivo, nude mice; details: alone and in combination with taxotere
Experimental: Male mice were implanted s.c. by trocar with fragments of DU-145 tumors harvested from s.c. growing tumors in nude male mice hosts. When the tumors reached ˜5 mm×5 mm ( at about 13-17 days) the animals were matched into treatment and control groups. The remainder of the study proceeded as for the HT-29 model, using taxotere as the standard chemotherapy agent.
In this model unless otherwise noted for the individual study, test compound was administered via the intraperitoneal route on Days 1, 3, 5, 8 and 11 (q3d×5); taxotere was administered intravenously on Days 1, 3 and 5 (q2d×3).
The study involved an assessment of t-butyl-phenyalhistin alone and in combination with taxotere.

MCF-7 human breast tumor = assay: MCF-7 Human Breast Tumor Xenograft Model; assay type: in vivo, nude mice; details: in combination with taxotere; compound Days 1, 2, 3, 4, and 7
Experimental: Female nude mice (˜20 g) were implanted s.c. with 21-day release estrogen (0.25 mg) pellets 24 hours prior to the s.c. implantation with MCF-7 tumor fragments (harvested from s.c. tumors in nude mice hosts). The study then proceeded as described for the HT-29 model, using taxotere as the standard chemotherapy agent.
In this model unless otherwise noted for the individual study, the novel compound was injected via the intraperitoneal route daily on Days 1-5, inclusive (qd×5); taxotere was administered intravenously on Days 1, 3 and 5 (qod×3).
This study considered the effects of t-butyl-phenylahistin in the MCF-7 human breast tumor xenograft model. The doses of the compound were administered on Days 1, 2, 3, 4, and 7; Taxotere was administered on Days 1, 3 and 7.

T. rubrum isolate #1 = assay: Antifungal susceptibility testing, broth dilution (NCCLS M38-A); assay type: cell-based, Trichophyton rubrum; details: dermatophytes
Experimental: Antifungal susceptibility testing was accomplished according to the methods outlined in the National Committee for Clinical Laboratory Standards, M38-A “Reference Method for Broth Dilution Antifungal Susceptibility Testing of Conidium-Forming Filamentous Fungi; Approved Standard.” This includes testing in RPMI-1640 with glutamine and without bicarbonate, an inoculum size of 0.4-5×10^4, and incubation at 30 or 35° C. for 48 hours. […] Drug concentrations were 0.03-16 μg/ml for the investigational compounds, 0.015-8 μg/ml for itraconazole and griseofulvin.
The minimum lethal concentration (MLC) was determined by plating […] from the MIC concentration and each concentration above the MIC. […] When a MIC was obtained, a minimum fungicidal concentration (MFC) was determined to assess the fungistatic/fungicidal nature of the compound. […] The compound is scored as fungistatic if the cells are able to resume growth and fungicidal if no regrowth is possible because the compound had killed the organisms.

## CC(C)(C)c1[nH]cnc1/C=C1\NC(=O)[C@H](Cc2ccccc2)NC1=O [t-butyl-phenylahistin]
[1]
  % Cytotoxicity, Mean: 74%
  pIC50: 6.13
[2]
  % Cytotoxicity, Mean: 45%
  pIC50: < 4.70
[3]
  % Cytotoxicity, Mean: 88%
  pIC50: 6.38
[4]
  % Cytotoxicity, Mean: 65.5%
  pIC50: 6.41
[5]
  % Cytotoxicity, Mean: 65%
  pIC50: 6.42
[6]
  % Cytotoxicity, Mean: 37%
  pIC50: < 4.70
[7]
  % Cytotoxicity, Mean: 59.5%
  pIC50: 6.76
[8]; CsA Pretreat
  pIC50: 6.79
[8]; No CsA
  pIC50: 6.84 and 6.91
[9]; CsA Pretreat
  pIC50: 6.21
[9]; No CsA
  pIC50: 6.08 and 6.16
[10]
  pIC50: 6.59
[11]
  pIC50: 6.76
[12]
  microtubule depolymerization: induced microtubule depolymerization
[13]
  caspase-3 activation: activated in a dose-dependent manner
HuVEC monolayer
  time to induction of HuVEC monolayer permeability: ≤ 1 h
HuVEC monolayer; FITC-Dextran
  HuVEC monolayer permeability: induced significant HuVEC monolayer permeability
HT-29 human colon tumor; combination with CPT-11
  Comments: Synergy
HT-29 human colon tumor; monotherapy 30 mg/kg ip q3dx5, study 2139
  NPI-Compound Result TGI %: No Effect
HT-29 human colon tumor; study 2139
  Exceed NCI Criterion (TGI 58%): Combination
HT-29 human colon tumor; t-butyl-phenylahistin 30 mg/kg ip q3dx5 + CPT-11 100 ip qwx3, p < 0.05 vs Control and vs CPT-11 Alone
  Combination Results TGI %: 77.7%
[14]
  tumor growth inhibition indices (excised tumor weights): marked inhibition of tumor growth
MCF-7 human breast tumor
  effect on estimated tumor growth: significant potentiation of taxotere
T. rubrum isolate #1
  potency compared to griseofulvin: at least was equivalent in potency
Jurkat cells
  pIC50: 6.78
